Where two headings read alike, the source gives them in different places.
Assays:
A549 cells = test: Cytotoxicity assay (resazurin); type: cell-based; details: 20 h, mean±S.E.M. from two independent experiments
Procedure: Sample preparation. The compounds were dissolved in DMSO at 12.8 mg/mL as the stock solutions, except for compounds 9-17, which were directly dissolved in the culture medium at 12.8 mg/mL. The stock solutions were diluted by the culture medium to the testing concentration at 128 μg/mL (compound 9-17 were diluted to 1,280 μg/mL). The solutions were then serially diluted two fold in a 96-well plate and were used in the cytotoxicity assay immediately.
Cell culture and cytotoxicity assay. A549 cells (ATCC CCL-185) were cultured in high glucose DMEM (Sigma-Aldrich, D6429) supplemented with 10% FBS, 1% penicillin-streptomycin solution (Sigma-Aldrich, P4333), 1% gentamicin solution (Sigma-Aldrich, G1272) and 1% amphotericin B solution (Sigma-Aldrich, A2942) at 37° C. in a humidified atmosphere containing 5% CO2. After cells reached 80%˜90% confluency, they were detached and counted using an Invitrogen Countess automated cell counter. Cells with viability over 90% were seeded at a density of 5×10^3 cells per well in 96-well cell culture plates. After overnight culture, the culture medium in each well removed with a pipet. 80 μL of the compound solutions from each well of the 96-well plate prepared above were transferred to this 96-well plate containing the cells, and the plates were incubated for 20 h. After addition of 8 μL of 110 μg/mL resazurin, the plates were incubated for further 3 h at 37° C. in 5% CO2. The fluorescence intensity was measured using a Tecan M200 Infinite Pro microplate reader at excitation 560 nm, emission 590 nm. IC50 were calculated by curve fitting the inhibition values vs. log(concentration) using GraphPad's Prism. The cytotoxicity assays (in triplicate) were repeated twice using freshly prepared cells and compound solutions.

[1] = Log P determination (n-octanol/water, FAAS)
Procedure: Log P Determination: Calibration curves. Milli-Q Water (150 mL) was added to n-octanol (150 mL), and the mixture was stirred for 3 days to allow both phases to reach saturation. The gold standard solution (1000 ppm Au in hydrochloric acid, Fisher Scientific) was diluted to 1, 2, 3, 4 and 5 ppm with n-octanol-saturated water, and the absorbance of the resulting solutions was measured by flame atomic absorption spectroscopy (FAAS, Agilent Technology 200 Series AA, equipped with a gold HC Lamp-Au coded). The absorbance data were plotted against Au concentration, and the resulting calibration curve was used for determining the concentration of the analogs in the aqueous phase.
To construct the standard calibration curve of the Au concentration in the n-octanol phase, compound 27 was used. The Au concentration in compound 27 was first calibrated against the aqueous gold standard. For this, 0.440 mg of compound 27 was weighed on a Sartorius MC5 microbalance, and then added to 22 mL of n-octanol-saturated water. […] For this, solutions of varying concentrations (0.99, 2.47, 4.94, 5.93, 9.88 ppm) of compound 27 in water-saturated n-octanol were prepared. The absorbance was measured by FAAS, and the data were plotted against the Au concentration to provide a second calibration curve, which was used for determining the Au concentration of the analogs in the n-octanol phase.
Determination of Au concentrations: Method 1. 0.5 to 1 mg of compound was weighed into a 2-mL Eppendorf tube containing 2 mL of n-octanol-saturated water. After shaking for about 4 h, the solution was centrifuged at 6000 rpm for 3 min. 1 mL of the supernatant was transferred to a new tube containing 1 mL of water-saturated n-octanol, and the mixture was shaken for 1 h. After centrifugation at 6000 rpm for 5 min, the two layers were collected and the gold concentration in each layer was determined by FAAS by comparing the absorbance to the first and second calibration curves.
Determination of Au concentrations: Method 2. […] For Method 2, 0.6 to 1 mg of compound was weighed into a 2-mL Eppendorf tube containing 1 mL of n-octanol-saturated water and 1 mL of water-saturated n-octanol. After shaking for 3-4 h, the mixture was centrifuged, and all liquid was transferred to a 15-mL tube. The liquid was then diluted with 2 mL of n-octanol-saturated saturated water and 2 mL of water-saturated n-octanol, and the mixture was shaken for another hour. After centrifugation at 6000 rpm for 5 min, the two layers were collected and the gold concentration in each layer was determined by FAAS by comparing the absorbance to the first and second calibration curves.
Log P was calculated as follows: log P=log[compound]oct/[compound]water

E. cloacae NCTC 13405 = test: Antibacterial assay, MIC/MBC by broth microdilution (CLSI); type: cell-based; details: E. cloacae NCTC 13405; for MIC: repeated twice, a/b = both values
Procedure: (§1) Antibacterial assay. The minimum inhibitory concentrations (MICs) and the minimum bactericidal concentrations (MBCs) were determined by the broth microdilution method as described in the CLSI (The Clinical & Laboratory Standards Institute) guidelines (Performance standards for antimicrobial susceptibility testing: Clinical and Laboratory Standards Institute (CLSI), Twenty-Fifth informational supplement. Document M100-S25: […]; Vol. 35). All bacterial strains were cultured in cation-adjusted Muller Hinton broth (CAMHB) up to log-phase and then diluted to give a concentration of 7.5×10^5 CFU/mL. The gold complexes were dissolved in DMSO or water as stock solutions, which were then serially diluted two-fold in a 96-well plate. Aliquots (100 μL) of the dilutions were mixed with equal volumes of the bacterium suspension in a 96 well plate (in triplicates). The plates were incubated at 37° C. for 18 h without shaking. Negative and positive controls were included in the same well plate with wells having the culture medium only and bacteria solution only, respectively. The sample concentration that gave inhibition values above 90% were determined as MICs as calculated from absorbance values at 600 nm (OD600) obtained using a Tecan SPARK IOM plate reader. To determine minimum bactericidal concentrations (MBCs), agar plates were treated with 5 μL sample solutions from each well, and then incubated at 37° C. for 18 h without shaking. The sample concentration that gave no colony formed on agar plates were determined as MBCs.
(§2) Selection of bacteria. The ESKAPE pathogens were chosen as they are responsible for the majority of nosocomial infections and also as they provide a good scope of strains including both Gram-negative and Gram-positive species. A. baumannii NCTC 13420 was originally identified in 24 hospitals in the UK during 2000-2003, which produced OXA-51-like β-lactamases, and was highly resistant to ampicillin, piperacillin, piperacillin/tazobactam, ceftazidime, cefotaxime, gentamicin and ciprofloxacin. P. aeruginosa NCTC13437 produces VIM-10 metallo-carbapenemase and VEB-1 (Vietnamese extended-spectrum beta-lactamase). Wild-type strain E. cloacae NCTC 13405 (originally named E. cloacae 684) was isolated from patients at the London Hospital during 1982-1983. This strain has inducible AmpC β-lactamase and is resistant to ampicillin/amoxicillin and cefoxitin. K. pneumoniae ATCC 700603 was isolated from the urine of a hospitalized patient in Richmond, Va. in 1994, and it produces SHV-18 extended spectrum beta-lactamase (ESBL). JE2 (USA300) is a methicillin-resistant S. aureus (MRSA) strain, also resistant to beta-lactams, ciprofloxacin, tetracycline, macrolides (erythromycin), lincosamides (clindamycin), streptogramin B, and mupirocin. E. faecium ATCC 700221, a positive fecal VRE (vancomycin-resistant enterococcus) isolate, is resistant to several antibiotics including vancomycin and teicoplanin. The quality control strain, Gram-negative E. coli ATCC 25922, was included in all assays and validated with ciprofloxacin and […].

P. aeruginosa NCTC 13437 = test: as above; type: cell-based; details: P. aeruginosa NCTC 13437; for MIC: repeated twice, a/b = both values
Procedure: as §1, §2

S. aureus JE2 (USA300) = test: as above; type: cell-based; details: S. aureus JE2 (USA300); for MIC: repeated twice, a/b = both values
Procedure: as §1, §2

[2] = tested on: K. pneumoniae ATCC 700603; test: as above; type: cell-based; details: K. pneumoniae ATCC 700603; for MIC: repeated twice, a/b = both values
Procedure: as §1, §2

E. faecalis ATCC 700221 = test: as above; type: cell-based; details: for MIC: repeated twice, a/b = both values
Procedure: as §1, §2

E. coli ATCC 25922 = test: as above; type: cell-based; details: for MIC: repeated twice, a/b = both values
Procedure: as §1, §2

A. baumannii NCTC 13420 = test: as above; type: cell-based; details: A. baumannii NCTC 13420; for MIC: repeated twice, a/b = both values
Procedure: as §1, §2

| Substance | IC50 against A549 cells (A549 cells) [µg/mL] | Log P [1] | MBC (in brackets) (E. cloacae NCTC 13405) | MIC (E. cloacae NCTC 13405) | MIC (P. aeruginosa NCTC 13437) | MBC (in brackets) (S. aureus JE2 (USA300)) | MBC (in brackets) [2] | MIC [2] | MBC (in brackets) (E. faecalis ATCC 700221) | MBC (in brackets) (E. coli ATCC 25922) | MIC (E. coli ATCC 25922) | MBC (in brackets) (A. baumannii NCTC 13420) | MIC (A. baumannii NCTC 13420) | Log P ([1]; n-octanol/water, gold by FAAS) | MIC (S. aureus JE2 (USA300)) | MIC (E. faecalis ATCC 700221) | MBC (in brackets) (P. aeruginosa NCTC 13437) |
| --- | --- | --- | --- | --- | --- | --- | --- | --- | --- | --- | --- | --- | --- | --- | --- | --- | --- |
| (1-Thio-β-D-glucopyranosato)(trimethylphosphine) gold(I) [Compound 15] | 52.2 ± 1.0 | −1.63 | 17 μM/mL | 4/9 | >547 μM/mL | (1) μM/mL | 34 (34) μM/mL | 34 (34) μM/mL | (0.5) μM/mL | 9 (9) μM/mL | 9 (9) μM/mL | 17 μM/mL | 17/4 | – | – | – | – |
| (Triphenylphosphine) gold chloride [Compound 31] | 12.0 ± 1.8 | – | – | >518 μM/mL | >518 μM/mL | 4 μM/mL | – | >518 μM/mL | 4 (4) μM/mL | – | >518 μM/mL | – | – | >3.94 | 1/2 | 4 (4) μM/mL | – |
| (1-Thio-β-D-galatopyranosato)(trimethylphosphine) gold(I) [Compound 16] | 43.0 ± 3.7 | −1.88 | 4(4) μM/mL | 4(4) μM/mL | >547 μM/mL | 0.3 (0.3) μM/mL | 34 (34) μM/mL | 34 (34) μM/mL | (0.5) μM/mL | 9 (9) μM/mL | 9 (9) μM/mL | 17 μM/mL | 17/9 | – | 0.3 (0.3) μM/mL | – | – |
| (1-Thio-β-D-maltosato)(triethylphosphine) gold(I) [Compound 14] | 31.0 ± 2.4 | −1.69 | 190 (190) μM/mL | 190 (190) μM/mL | 381 (381) μM/mL | 4 (0.09) μM/mL | – | >381 μM/mL | (0.4) μM/mL | 12 (12) μM/mL | 12 (12) μM/mL | 24 (24) μM/mL | 24 (24) μM/mL | – | – | – | 381 (381) μM/mL |
| (2-Acetamido-2-deoxy-1-thio-β-D-glucopyranosato)(trimethylphosphine) gold(I) [Compound 17] | 35.5 ± 0.9 | −2.03 | 16 μM/mL | 8/16 | >503 μM/mL | 0.5 (0.5) μM/mL | 126 μM/mL | 31 μM/mL | (0.5) μM/mL | (31) μM/mL | 8/31 | 16 μM/mL | 16/8 | – | 0.5 (0.5) μM/mL | – | – |
| (Benzenethiolato)(triethylphosphine) gold(I) [Compound 18] | 4.3 ± 0.2 | 2.20 | 603 μM/mL | 75 μM/mL | 302 (302) μM/mL | (0.6) μM/mL | – | >603 μM/mL | 1 μM/mL | (151) μM/mL | 151 μM/mL | (>603) μM/mL | 19/75 | – | 0.02 μM/mL | 0.6 μM/mL | 302 (302) μM/mL |
| [β-D-galactopyranosyl-(1→4)-β-D-glucopyranosato](triethylphosphine) gold(I) [Compound 13] | 32.9 ± 4.6 | – | 190 (190) μM/mL | 190 (190) μM/mL | 381 (381) μM/mL | 5 (0.09) μM/mL | 381 (381) μM/mL | 381 (381) μM/mL | (0.4) μM/mL | 24 (24) μM/mL | 24 (24) μM/mL | – | 24/48 | – | – | 0.09 μM/mL | 381 (381) μM/mL |

Reference: patent US20210198284A1, “GOLD COMPOSITIONS AND METHODS OF USE THEREOF” (THE UNIVERSITY OF MASSACHUSETTS, priority 2018, published 2021)
